From ChEMBL document CHEMBL1201862, “PubChem BioAssay data set” (2004)
Blank lines part the entries; values can stand above or below the compound they belong to. Activity calls are given as the source filed them.

Assays:
Cytochrome P450 3A4 = Cytochrome P450 3A4 (Homo sapiens, UniProt P08684);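 note: CYP3A4 tested as one member of a cytochrome P450 panel screen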
Cytochrome P450 2C9 = Cytochrome P450 2C9 (Homo sapiens, UniProt P11712)
Cytochrome P450 2D6 = Cytochrome P450 2D6 (Homo sapiens, UniProt P10635);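 note: CYP2D6 member of a cytochrome P450 panel assay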
Sequence of Cytochrome P450 2D6 (P10635 whole entry): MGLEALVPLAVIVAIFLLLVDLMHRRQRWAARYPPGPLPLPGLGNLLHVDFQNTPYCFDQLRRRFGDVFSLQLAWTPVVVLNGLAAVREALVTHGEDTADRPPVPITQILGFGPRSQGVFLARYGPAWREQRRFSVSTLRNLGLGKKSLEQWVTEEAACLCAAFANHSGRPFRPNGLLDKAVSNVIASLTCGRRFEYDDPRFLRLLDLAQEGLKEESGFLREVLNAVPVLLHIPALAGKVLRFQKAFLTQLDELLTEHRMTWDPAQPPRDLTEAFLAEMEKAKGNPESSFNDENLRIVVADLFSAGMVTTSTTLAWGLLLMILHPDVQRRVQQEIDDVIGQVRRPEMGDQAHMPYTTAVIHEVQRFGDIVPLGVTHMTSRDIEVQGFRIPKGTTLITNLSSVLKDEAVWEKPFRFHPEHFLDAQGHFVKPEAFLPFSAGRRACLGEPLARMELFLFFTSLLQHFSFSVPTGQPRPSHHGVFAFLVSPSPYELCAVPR

Cytochrome P450 2C19 = Cytochrome P450 2C19 (Homo sapiens, UniProt P33261); experiment: Cytochrome panel assay with activity outcomes. Panel member name: p450-cyp2c19 Compounds with AC50 equal or less than 10 uM are considered active; type: functional; conditions: read-out: AC50
Sequence of Cytochrome P450 2C19 (P33261 whole entry): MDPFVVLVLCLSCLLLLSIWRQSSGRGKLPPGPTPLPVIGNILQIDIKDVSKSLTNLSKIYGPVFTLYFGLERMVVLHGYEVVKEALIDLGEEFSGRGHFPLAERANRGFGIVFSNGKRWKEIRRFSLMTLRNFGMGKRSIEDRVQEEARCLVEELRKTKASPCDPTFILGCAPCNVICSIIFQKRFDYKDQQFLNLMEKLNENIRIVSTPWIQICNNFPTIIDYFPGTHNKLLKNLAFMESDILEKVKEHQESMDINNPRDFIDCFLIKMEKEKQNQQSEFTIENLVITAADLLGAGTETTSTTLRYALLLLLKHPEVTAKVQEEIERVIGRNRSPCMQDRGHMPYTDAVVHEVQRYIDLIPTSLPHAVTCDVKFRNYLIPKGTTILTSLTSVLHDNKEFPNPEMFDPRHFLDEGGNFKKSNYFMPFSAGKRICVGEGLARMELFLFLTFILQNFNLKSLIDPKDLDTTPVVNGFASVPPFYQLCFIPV

Cytochrome P450 1A2 = target: T1, Cytochrome P450 1A2 (Homo sapiens, UniProt P05177);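 note: PubChem cytochrome P450 panel assay, CYP1A2 panel member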
T1 sequence (P05177 whole entry): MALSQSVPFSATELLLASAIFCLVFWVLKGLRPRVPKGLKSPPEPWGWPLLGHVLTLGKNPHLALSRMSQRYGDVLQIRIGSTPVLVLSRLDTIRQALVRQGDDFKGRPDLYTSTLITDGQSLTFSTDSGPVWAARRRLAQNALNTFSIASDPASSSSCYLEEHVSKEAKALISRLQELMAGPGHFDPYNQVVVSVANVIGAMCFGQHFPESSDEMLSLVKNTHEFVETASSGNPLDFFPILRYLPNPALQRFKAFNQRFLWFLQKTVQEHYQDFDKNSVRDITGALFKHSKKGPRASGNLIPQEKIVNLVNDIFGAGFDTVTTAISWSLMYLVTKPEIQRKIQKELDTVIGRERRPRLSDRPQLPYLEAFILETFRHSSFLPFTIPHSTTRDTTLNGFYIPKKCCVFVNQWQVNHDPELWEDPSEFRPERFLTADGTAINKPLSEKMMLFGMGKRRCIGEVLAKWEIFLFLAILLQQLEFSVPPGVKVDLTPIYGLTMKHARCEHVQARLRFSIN

[1] = target: T2, Corticotropin-releasing factor receptor 2/Corticotropin-releasing factor-binding protein (Homo sapiens, UniProt P24387+Q13324); experiment: activators of CRF receptor 2 with binding protein – uHTS hits, confirmation (AID 602473); type: functional; conditions: read-out: EC50_Mean
T2 sequence (Q13324 whole entry): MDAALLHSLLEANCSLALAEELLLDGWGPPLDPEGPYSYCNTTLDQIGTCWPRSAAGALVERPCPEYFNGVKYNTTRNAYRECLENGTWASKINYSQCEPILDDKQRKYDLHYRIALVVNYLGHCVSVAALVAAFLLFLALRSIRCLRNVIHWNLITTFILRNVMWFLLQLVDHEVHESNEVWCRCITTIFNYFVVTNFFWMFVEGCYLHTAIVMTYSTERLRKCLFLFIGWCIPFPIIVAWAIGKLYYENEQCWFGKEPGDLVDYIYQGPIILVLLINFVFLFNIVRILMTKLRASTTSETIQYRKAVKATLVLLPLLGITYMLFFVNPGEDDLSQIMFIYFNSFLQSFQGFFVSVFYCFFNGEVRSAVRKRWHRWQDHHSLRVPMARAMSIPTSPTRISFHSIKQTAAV
T2 sequence (P24387 whole entry): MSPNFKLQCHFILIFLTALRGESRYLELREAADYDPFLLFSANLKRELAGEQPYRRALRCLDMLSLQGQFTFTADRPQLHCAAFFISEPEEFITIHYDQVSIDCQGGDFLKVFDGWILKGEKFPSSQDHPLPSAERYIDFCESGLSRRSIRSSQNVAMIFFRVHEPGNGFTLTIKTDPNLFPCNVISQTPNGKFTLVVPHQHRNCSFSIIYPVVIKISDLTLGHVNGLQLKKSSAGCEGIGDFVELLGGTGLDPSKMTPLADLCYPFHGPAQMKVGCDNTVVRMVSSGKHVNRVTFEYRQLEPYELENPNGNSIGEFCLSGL

[2] = test system: Streptococcus sp. 'group A'; experiment: Streptococcus pyogenes SK(-)GAS viability under kanamycin – luminescence, BacTiterGlo, confirmation, counter-screen for streptokinase expression inhibitor project, dose response (AID 1900); type: functional, organism-based
Streptococcus = experiment: GAS UMAA2166 growth inhibition – luminescence, BacTiterGlo, counter-screen for streptokinase expression inhibitor project, dose response (AID 1915); type: functional, organism-based;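 note: potency for reduction of bacterial viability or growth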
[3] = Luminescence Cell-Based Dose Retest to Confirm Inhibitors of Cancer Stem Cells. [Related pubchem assays (depositor defined):AID2717, AID2721]; type: functional; conditions: Homo sapiens
[4] = target: T3, Rac GTPase-activating protein 1 (Homo sapiens, UniProt Q9H0H5); experiment: blockers of MgcRacGAP-driven Rac1 GTP hydrolysis – biochemical, ADP Hunter fluorescence, primary and confirmatory, confirmation (AID 624330); type: functional
T3 sequence (Q9H0H5 whole entry): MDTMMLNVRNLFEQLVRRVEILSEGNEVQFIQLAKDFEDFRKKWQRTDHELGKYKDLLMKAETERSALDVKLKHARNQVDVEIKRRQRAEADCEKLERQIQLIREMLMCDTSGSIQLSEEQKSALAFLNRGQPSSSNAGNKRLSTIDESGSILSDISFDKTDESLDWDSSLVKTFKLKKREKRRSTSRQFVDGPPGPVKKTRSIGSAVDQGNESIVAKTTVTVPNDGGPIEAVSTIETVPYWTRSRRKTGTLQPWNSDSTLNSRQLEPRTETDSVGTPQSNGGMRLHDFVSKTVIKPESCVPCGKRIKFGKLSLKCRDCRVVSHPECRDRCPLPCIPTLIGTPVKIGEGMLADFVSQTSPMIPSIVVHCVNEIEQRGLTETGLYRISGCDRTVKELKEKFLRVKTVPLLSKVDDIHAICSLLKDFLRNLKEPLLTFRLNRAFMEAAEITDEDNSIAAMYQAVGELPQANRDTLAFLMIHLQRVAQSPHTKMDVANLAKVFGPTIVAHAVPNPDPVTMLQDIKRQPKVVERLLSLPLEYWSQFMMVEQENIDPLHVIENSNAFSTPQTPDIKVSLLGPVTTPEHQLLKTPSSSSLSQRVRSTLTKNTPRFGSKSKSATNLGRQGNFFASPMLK

Sequence of Cytochrome P450 3A4 (P08684 whole entry): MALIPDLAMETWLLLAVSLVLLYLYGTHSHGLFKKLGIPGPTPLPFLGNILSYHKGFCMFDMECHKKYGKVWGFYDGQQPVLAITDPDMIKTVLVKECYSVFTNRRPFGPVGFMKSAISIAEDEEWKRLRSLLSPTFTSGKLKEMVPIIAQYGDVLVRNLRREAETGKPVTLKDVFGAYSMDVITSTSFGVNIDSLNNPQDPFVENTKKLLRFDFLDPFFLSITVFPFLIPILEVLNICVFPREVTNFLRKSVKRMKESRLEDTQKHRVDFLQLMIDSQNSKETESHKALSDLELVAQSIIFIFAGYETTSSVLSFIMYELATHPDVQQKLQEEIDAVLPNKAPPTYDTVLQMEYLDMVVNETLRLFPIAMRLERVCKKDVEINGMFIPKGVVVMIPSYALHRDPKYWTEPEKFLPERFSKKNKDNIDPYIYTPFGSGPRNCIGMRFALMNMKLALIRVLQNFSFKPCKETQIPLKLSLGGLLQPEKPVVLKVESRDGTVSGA
Sequence of Cytochrome P450 2C9 (P11712 whole entry): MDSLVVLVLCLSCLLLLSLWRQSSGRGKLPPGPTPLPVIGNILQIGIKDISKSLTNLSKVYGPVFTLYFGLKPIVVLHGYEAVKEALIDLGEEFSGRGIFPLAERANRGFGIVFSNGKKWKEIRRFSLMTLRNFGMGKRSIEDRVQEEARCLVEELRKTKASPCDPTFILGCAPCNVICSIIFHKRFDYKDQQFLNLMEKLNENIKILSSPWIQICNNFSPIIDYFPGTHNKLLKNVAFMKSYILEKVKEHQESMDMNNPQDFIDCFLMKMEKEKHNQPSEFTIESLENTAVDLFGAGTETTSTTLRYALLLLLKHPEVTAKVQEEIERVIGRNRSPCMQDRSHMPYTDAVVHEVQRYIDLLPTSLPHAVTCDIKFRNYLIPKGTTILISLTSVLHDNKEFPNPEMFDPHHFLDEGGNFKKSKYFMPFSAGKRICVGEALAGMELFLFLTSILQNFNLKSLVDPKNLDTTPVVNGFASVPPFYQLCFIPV

AC50 (Cytochrome P450 2D6): 12.6 µM (inconclusive) | AC50 (Cytochrome P450 2C9): 0.794 µM (inconclusive)
Structure (SMILES): COc1ccc2[nH]cc(CCNc3ccnc(-c4c(C)noc4C)n3)c2c1

AC50 (Cytochrome P450 2C9): 1.78 µM (inconclusive)
Structure (SMILES): CN(C)S(=O)(=O)c1ccc(C(=O)Nc2ccc(CN3CCCC3)cc2)cc1

AC50 (Cytochrome P450 2C19): 14.1 µM (inconclusive) | AC50 (Cytochrome P450 2C9): 20 µM (inconclusive)
Structure (SMILES): O=C(CSc1ccccc1)Nc1ccc(NC(=O)c2ccco2)cc1

EC50 [1]: 8.2 µM (active)
Structure (SMILES): COc1ccccc1NS(=O)(=O)c1cc(C(=O)NCCC(C)C)ccc1F

AC50 (Cytochrome P450 2D6): 14.1 µM (inconclusive) | AC50 (Cytochrome P450 3A4): 25.1 µM (inconclusive) | AC50 (Cytochrome P450 2C9): 12.6 µM (inconclusive)
Structure (SMILES): CC(Oc1ccc(Cl)cc1Cl)C(=O)/C=C/N(C)C (configuration not stated)

EC50 [1]: 9.71 µM (active)
Structure (SMILES): Cc1ccccc1OCCC(=O)Nc1cc(S(=O)(=O)N2CCCCC2)ccc1N1CCN(C)CC1

AC50 (Cytochrome P450 2C9): 12.6 µM (inconclusive)
Structure (SMILES): Cn1c(=O)[nH]c(=O)c2c1nc(NCCCO)n2CCCc1ccccc1

AC50 (Cytochrome P450 2C9): 0.794 µM (inconclusive)
Structure (SMILES): Cc1cccc(CNc2ccnc(-c3ccccc3Cl)n2)c1

AC50 (Cytochrome P450 1A2): 8.91 µM (inconclusive)
Structure (SMILES): Cc1cc(Nc2ccccc2)nc(N)n1

AC50 (Cytochrome P450 1A2): 1.26 µM (inconclusive) | AC50 (Cytochrome P450 3A4): 15.8 µM (inconclusive)
Structure (SMILES): O=C(CSc1ccc(C(F)(F)F)cc1[N+](=O)[O-])Nc1ccccc1

EC50 [1]: > 53 µM (inactive)
Structure (SMILES): O=C(Nc1cccc(F)c1)c1cc(S(=O)(=O)N2CCOCC2)ccc1N1CCCC1

IC50 [4]: 110 µM (active)
Structure (SMILES): COC(=O)c1ccc(C(=O)OCCCc2nc3cc(N)ccc3[nH]2)cc1

IC50 [4]: 89.3 µM (active)
Structure (SMILES): CN(Cc1ccccc1)Cc1c(O)ccc2ccccc12

Further lines, the compound ahead of its results:

Structure (SMILES): CN1/C(=C/C=C(/C#N)C(N)=O)C(C)(C)c2ccccc21
AC50 (Cytochrome P450 3A4): 22.4 µM (inconclusive) | AC50 (Cytochrome P450 2C9): 28.2 µM (inconclusive)

Structure (SMILES): Cc1ccc(OCC(=O)NNC(=O)C2CCN(c3ncccn3)CC2)cc1
AC50 (Cytochrome P450 2C19): 0.501 µM (inconclusive) | AC50 (Cytochrome P450 3A4): 20 µM (inconclusive) | AC50 (Cytochrome P450 2C9): 14.1 µM (inconclusive)

Structure (SMILES): O=C(O)Cc1cccnc1C(=O)O
AC50 (Cytochrome P450 1A2): 39.8 µM (inconclusive)

Structure (SMILES): CCNc1ncc2nc(-c3cc(F)cc(F)c3)c(=O)n(C[C@H]3CCCO3)c2n1
AC50 (Cytochrome P450 1A2): 3.16 µM (inconclusive) | AC50 (Cytochrome P450 3A4): 15.8 µM (inconclusive)

Structure (SMILES): CN1CCc2nc3sc(C(=O)NC(C)(C)C)c(N)c3cc2C1
AC50 (Cytochrome P450 2C19): 31.6 µM (inconclusive) | AC50 (Cytochrome P450 1A2): 14.1 µM (inconclusive)

Structure (SMILES): CC(C)NC(=O)N1CCN(c2ccncc2S(=O)(=O)N2CCOCC2)CC1
AC50 (Cytochrome P450 2C19): 39.8 µM (inconclusive) | AC50 (Cytochrome P450 2C9): 35.5 µM (inconclusive)

Structure (SMILES): Cc1ccc(CNC(=O)C2(NC(=O)Nc3ccc(C)cc3)CCCCC2)cc1
AC50 (Cytochrome P450 2C19): 1.78 µM (inconclusive) | AC50 (Cytochrome P450 2C9): 3.55 µM (inconclusive)

Structure (SMILES): COc1ccc(-n2c(=O)c(-c3cc(F)cc(F)c3)nc3cnc(N4CCNCC4)nc32)cc1
AC50 (Cytochrome P450 1A2): 12.6 µM (inconclusive) | AC50 (Cytochrome P450 3A4): 25.1 µM (inconclusive)

Structure (SMILES): COc1ccc(-c2sc3ccc(OC)cc3c2C#CCCO)cc1
EC50 [2]: 7.3 µM (active) | EC50 (Streptococcus): 9.32 µM (active) | AC50 [3]: 2.88 µM (active)

Structure (SMILES): Cc1nn(C(C)C(=O)Nc2sc3c(c2C#N)CCCC3)c(C)c1[N+](=O)[O-] (configuration not stated)
AC50 (Cytochrome P450 2C9): 3.98 µM (inconclusive)

Structure (SMILES): C/C(CCN1CCc2nc(-c3ccccc3)c(-c3ccccc3)cc2C1)=N\O[C@@H](C)c1cc(-c2c(C)cc(C)cc2C)no1
AC50 (Cytochrome P450 2C19): 0.00631 µM (inconclusive) | AC50 (Cytochrome P450 3A4): 3.98 µM (inconclusive) | AC50 (Cytochrome P450 2C9): 0.316 µM (inconclusive)

Structure (SMILES): CCOC(=O)c1cnc2c(cnn2C)c1NCCCN(C)C
AC50 (Cytochrome P450 1A2): 22.4 µM (inconclusive)

Structure (SMILES): CCCc1nnc(NC(=O)Cn2c(=O)oc3cc(Br)ccc32)s1
EC50 [1]: 9.87 µM (active)

Structure (SMILES): O=c1c(CCc2ccccc2)nc2cncnc2n1C1CC1
AC50 (Cytochrome P450 2C19): 39.8 µM (inconclusive) | AC50 (Cytochrome P450 2D6): 15.8 µM (inconclusive) | AC50 (Cytochrome P450 3A4): 10 µM (inconclusive) | AC50 (Cytochrome P450 2C9): 25.1 µM (inconclusive)

Structure (SMILES): O=C(NCc1ccco1)c1cc(C(=O)C2CCCCC2)c[nH]1
AC50 (Cytochrome P450 2C19): 14.1 µM (inconclusive) | AC50 (Cytochrome P450 2C9): 8.91 µM (inconclusive)

Structure (SMILES): COc1ccc(CN2CCCC(C(=O)N3CCCC3)C2)cc1 (configuration not stated)
IC50 [4]: 109 µM (active)

Structure (SMILES): Cc1ccc(Cn2cnc3c(nnn3Cc3ccc(Cl)cc3)c2=O)cc1
AC50 (Cytochrome P450 2C19): 4.47 µM (inconclusive) | AC50 (Cytochrome P450 1A2): 25.1 µM (inconclusive)
